The source of these data is patent US20130203649A1, “INHIBITORS OF TLR SIGNALING BY TARGETING TIR DOMAIN INTERFACES” (UNIVERSITY OF MARYLAND, BALTIMORE, priority 2012, published 2013).

No end group written: not given here.

The assay deals with C57BL/6J mice. Nature of the assay: Survival after lethal LPS challenge in C57BL/6J mice. Format: in vivo, mouse. The settings on record: LPS 17.5 μg/g i.p.; peptide 10 nmol/g i.p. 1 h before. The protocol:
FIG. 10. […] (A-E) C57BL/6J mice were injected i.p. with purified Escherichia coli K235 LPS (1 μg/g) or PBS. Peptides (10 nmol/g of animal weight) were injected i.p. (A, B, D, E) or i.v. (C) 1 h before (A, B, and C) or 30 min after (D, E) i.p. injection of LPS. Data in panels A and D show plasma IL-6 and TNF-α levels measured 2 h after LPS challenge. Peptide TM8/9 was used as a non-inhibitory control peptide. Data represent the means±s.e.m. for 6-12 blood samples obtained in at least three independent experiments. *p<0.01. (F, G) C57BL/6J mice were challenged i.p. with a lethal LPS dose (17.5 μg/g). Peptides (10 nmol/g) were injected i.p. 1 h before LPS challenge. […] The statistical significance of changes in mortality and survival time was determined by the Mantel Cox log-rank test using GraphPad Prism software (Version 5.04). *p<0.01.
Eight-week-old C57BL/6J mice were injected with 1 or 17.5 μg/g animal weight of E. coli K235 LPS i.p. Peptides reconstituted in PBS were administered i.p. or i.v. Control groups received equivalent volume of solvent (PBS). The blood samples were collected 1, 2, 4, and 8 h, or 2, 8, and 24 h after LPS challenge. The plasma samples were obtained and kept frozen until TNF-α and IL-6 were measured by ELISA. Survival of animals was monitored every 6-16 h after LPS challenge. All animal experiments were carried out with institutional approval.
We next studied whether inhibitory peptides protect mice from a lethal LPS challenge. TR6, a previously described inhibitory peptide derived from the third helical region of TRAP (30), was also included in this study as an additional control. C57BL/6J mice were injected i.p. with 17.5 μg/g LPS. This dose induced 100% mortality in the control group (FIG. 10F). […] The peptide-treated survivors appeared active and healthy at the time the experiments were terminated, 7 d after injection of LPS.

RQIKIWFQNRRMKWKKPGFLRDPWCKYQML [TR6]: the “Survival after lethal LPS challenge” value is “improved animal survival comparably to TM6”.
